Measurements published in US5262421A, “Use of dicentrine and its derivatives for the treatment of hypertension, arrhythmia, thrombosis and atherosclerosis” (National Science Council, priority 1991, dated 1993).
Entries after “also recorded” stand apart in the source; their conditions may differ.

Columns and labels:
[1] = tested on: rats fed with high cholesterol and high fat diet; assay: Blood cholesterol and triglyceride in rats fed high cholesterol and high fat diet; type: in vivo, rat; details: for Cholesterol / Triglyceride: high cholesterol & fat diet, dicentrine 10 mg/kg or prazosin 5 mg/kg, oral twice a day in last week; for Cholesterol: diet control 120 ± 7.1, normal diet 62 ± 4.5; for Triglyceride: diet control 305 ± 11.1, normal diet 84 ± 5.4
[2] = tested on: isolated thoracic aorta of rats fed with high cholesterol and high fat diet; assay: Contractile force of isolated thoracic aorta from rats fed high cholesterol and high fat diet; type: in vivo, rat; details: for contractile force: high cholesterol & fat diet, dicentrine 10 mg/kg, prazosin 5 mg/kg
anesthetized rats = assay: Systemic hemodynamic parameters of pentobarbital-anesthetized rats; type: in vivo, rat; details: for Blood flow: before 7 ± 4; for total peripheral resistance: dicentrine 1.0 mg/kg, prazosin 0.1 mg/kg
rat thoracic aorta = assay: Aortic contraction induced by other agonists; details: in words
rat thoracic aortae = assay: Norepinephrine-induced contraction of rat thoracic aortae (phasic and tonic); details: in words
rat ventricular cells = assay: Action potential of rat ventricular cells; type: cell-based; details: for Tp (time to peak) / APD50 (action potential duration at 50% repolarization) / AP amplitude (initial upstroke amplitude): 3 μM; for Tp (time to peak): control 5.0 ± 0.5 (dicentrine), 5.3 ± 0.5 (quinidine); for APD50 (action potential duration at 50% repolarization): control 59.9 ± 11.3 (dicentrine), 62.6 ± 3.9 (quinidine); for AP amplitude (initial upstroke amplitude): control 138.3 ± 2.6 (dicentrine), 135.2 ± 2.2 (quinidine)
Excerpt: (§1) In rat ventricular cells, the effects of dicentrine on action potential and membrane current were studied. […] However, calcium current was less affected.
The effects of dicentrine and quinidine on action potential were compared and studied in rat ventricular cells. […] In addition to the prolongation of APD50, a depression of initial upstroke amplitude from 138.3±2.6 mV to 125.5±4.5 mV and prolongation of the time to peak amplitude from 5.0±0.5 msec to 10.0±1.9 msec were observed.
Means ± S.E.M. are presented. *: P < 0.05 as compared with the
APD50 : action potential duration measured at 50% repolarization fro
Tp : time to peak measured from the start of depolarization to the
Concentration: dicentrine (3 μM), quinidine (3 μM).

[3] = tested on: α1-adrenoceptor (rat thoracic aortae); assay: Schild analysis of α1-adrenoceptor antagonism: norepinephrine- and phenylephrine-induced contraction of rat thoracic aortae
Excerpt: Results are given as means ± S.E.M. or the mean with 95% confidence

guinea-pig trachea = assay: Contraction and relaxation of guinea-pig trachea; details: in words
[4] = tested on: conscious spontaneously hypertensive (SH) and normotensive (NT) rats; assay: Mean arterial pressure in conscious spontaneously hypertensive (SH) and normotensive (NT) rats; type: in vivo, rat
[5] = tested on: membrane currents of rat ventricular cells; assay: Voltage clamp, membrane currents in rat ventricular cells; type: cell-based
Excerpt: as §1

washed rabbit platelets = assay: Aggregation of washed rabbit platelets induced by arachidonic acid, collagen, thrombin, ADP or PAF; type: cell-based; details: for Aggregation (%): dicentrine 150 μM
Excerpt: These fractions inhibited the aggregation of washed rabbit platelets induced by ADP, collagen, arachidonic acid and platelet-activating factor (PAF). […] Furthermore, the action potential of rat ventricular cells was prolonged by these fractions. After rechromatography on a silica gel column with n-hexane-ethylacetate (2:1), four potent compounds, dicentrine, N-methylnandigerine, N-methylovigenine and dicentrinone were obtained.
500 g of dried, ground root material Lindera oldhamu (megaphylla) Hemsl was extracted with 95% ethanol, and the extract was concentrated in vacuo and fractionated into ethanol- and ethylacetate-soluble fractions. The ethylacetate-soluble fraction was then applied to a column of silica gel and eight fractions were obtained.
(§2) Means ± S.E.M. are presented. *: P < 0.05, **: P < 0.01, ***: P < 0.00
(§3) as compared with the respective control. Concentration: arachidonic acid
(100 μM), collagen (10 μg/ml), norepinephrine (NE, 3 μM), each
(§4) At 6 min after the addition of inducer, indomethacin (50 μM) and EDTA (2 mM) were added to stop the reaction, and thromboxane B2 was assayed by RIA kits.
(§5) (100 μM), collagen (10 ug/ml), thrombin (0.1 U/ml), dicentrine (150

[6] = tested on: Thromboxane B2 formation in washed rabbit platelets; assay: Thromboxane B2 formation in washed rabbit platelets (RIA); type: cell-based; details: for Thromboxane B2: dicentrine 150 μM
Procedure: as §4, §2, §3, §5

[7] = pentobarbital-anesthetized rats, in words
[8] = oral twice a day (10 mg/kg) in the last week, in words

SMILES: COc1cc2nc(N3CCN(C(=O)c4ccco4)CC3)nc(N)c2cc1OC [prazosin, reference compound]
- Cholesterol [1]: 112 ± 3.9 mg/dL
- Triglyceride [1]: 114 ± 9.2 mg/dL
- contractile force ([2]; phenylephrine 3 × 10^-6 M): 0.87 ± 0.12 g
- contractile force ([2]; phenylephrine 3 × 10^-7 M): 0.70 ± 0.09 g
- contractile force ([2]; phenylephrine 3 × 10^-8 M): 0.30 ± 0.05 g
- contractile force ([2]; phenylephrine 10^-6 M): 0.80 ± 0.12 g
- contractile force ([2]; phenylephrine 10^-7 M): 0.51 ± 0.08 g
- Blood flow (anesthetized rats; after prazosin 0.1 mg/kg): 171 ± 14
- CO (anesthetized rats; after prazosin 0.1 mg/kg, before 27 ± 3): 32 ± 3 mL/min
- MAP (anesthetized rats; after prazosin 0.1 mg/kg, before 120 ± 4): 68 ± 6 mm Hg
- HR (anesthetized rats; after prazosin 0.1 mg/kg, before 367 ± 9): 337 ± 10 bpm
- total peripheral resistance (anesthetized rats): reduction
- cardiac output (CO) (anesthetized rats; [7]): little or no change
- mean arterial pressure (MAP) (anesthetized rats; [7]): decrease

SMILES: COc1cc2c(cc1OC)-c1c3c(cc4c1[C@H](C2)N(C)CC4)OCO3 [dicentrine]
- serum triglyceride level ([1]; cholesterol-triglyceride-rich diet, in words): decreased
- Cholesterol [1]: 112 ± 4.6 mg/dL
- Triglyceride [1]: 108 ± 4.3 mg/dL
- blood cholesterol level [1, 8]: unchanged
- triglyceride level [1, 8]: restored to normal levels
- aortic contraction induced by U-46619, angiotensin II, high potassium or carbachol (rat thoracic aorta): did not affect
- vasorelaxant activity in rat thoracic aorta (rat thoracic aortae): most potent vasorelaxant
- Tp (time to peak) (rat ventricular cells): 10.0 ± 1.9 ms
- Tp (time to peak) (rat ventricular cells; listed as Dicentrine): 10.0 ± 1.9 ms
- APD50 (action potential duration at 50% repolarization) (rat ventricular cells): 201.9 ± 28.7 ms
- APD50 (action potential duration at 50% repolarization) (rat ventricular cells; listed as Dicentrine): 201.9 ± 28.7 ms
- AP amplitude (initial upstroke amplitude) (rat ventricular cells): 125.5±4.5 mV
- AP amplitude (initial upstroke amplitude) (rat ventricular cells; listed as Dicentrine): 125.5 ± 4.5 mV
- action potential (rat ventricular cells; stimulation frequency 0.1 Hz): prolonged
- initial upstroke amplitude (rat ventricular cells; stimulation frequency 0.1 Hz): reduced
- time to peak (rat ventricular cells; stimulation frequency 0.1 Hz): increased
- α1-adrenoceptor antagonism, relative potency ([3]; comparison with prazosin, yohimbine and phentolamine): less potent than prazosin; also recorded: much more potent than phentolamine or yohimbine
- effects in denuded aortae ([3]; denuded aortae): still persisted
- norepinephrine- or phenylephrine-induced vasoconstriction of rat aortae ([3]; in words): competitive antagonism
- contraction of guinea-pig trachea caused by histamine or carbachol (guinea-pig trachea): slightly inhibited
- β-adrenoceptor relaxation to isoprenaline in trachea (guinea-pig trachea): not affected
- mean arterial pressure ([4]; conscious SH and NT rats): dose-related decreases in mean arterial pressure which were of a greater magnitude in SH rats than in NT rats
- duration of hypotensive effect ([4]; oral administration, conscious SH rats): over 15 hr
- contractile force of aorta ([2]; cholesterol-triglyceride-treated rats, in words): restored the contractile force of cholesterol-triglyceride-treated rat aortae back to normal values
- maximal contractile force of isolated thoracic aorta [2, 8]: restored to normal range
- contractile force ([2]; phenylephrine 3 × 10^-6 M): 0.75 ± 0.12 g
- contractile force ([2]; phenylephrine 3 × 10^-7 M): 0.55 ± 0.07 g
- contractile force ([2]; phenylephrine 3 × 10^-8 M): 0.22 ± 0.05 g
- contractile force ([2]; phenylephrine 10^-6 M): 0.67 ± 0.11 g
- contractile force ([2]; phenylephrine 10^-7 M): 0.55 ± 0.07 g
- calcium current [5]: less affected
- fast sodium inward current [5]: inhibition
- steady state outward current [5]: significant inhibition
- transient outward current [5]: significant inhibition
- Blood flow (anesthetized rats; after dicentrine 1.0 mg/kg): 200 ± 27
- CO (anesthetized rats; after dicentrine 1.0 mg/kg, before 21 ± 2): 25 ± 4 mL/min
- MAP (anesthetized rats; after dicentrine 1.0 mg/kg, before 122 ± 5): 62 ± 5 mm Hg
- HR (anesthetized rats; after dicentrine 1.0 mg/kg, before 353 ± 10): 348 ± 8 bpm
- hypotensive activity after α1-adrenoceptor blockade (anesthetized rats; after α1-adrenoceptor blockade): completely abolished
- mean arterial blood pressure (anesthetized rats; anesthetized rats, i.v. bolus 0.1-1.0 mg/kg): dose-related reduction
- duration of reduction in mean arterial blood pressure (anesthetized rats; anesthetized rats, i.v. bolus 0.1-1.0 mg/kg, throughout observation period): ≥ 2 h
- total peripheral resistance (anesthetized rats): reduction
- cardiac output (CO) (anesthetized rats; [7]): little or no change
- heart rate (HR), or stroke volume (SV) (anesthetized rats; [7]): no change
- mean arterial pressure (MAP) (anesthetized rats; [7]): decrease
- aggregation of washed rabbit platelets (washed rabbit platelets; induced by arachidonic acid and collagen, in words): inhibited
- Aggregation (%) (washed rabbit platelets; inducer arachidonic acid 100 μM, control 92 ± 1): 11 ± 7%
- Aggregation (%) (washed rabbit platelets; inducer collagen 10 ug/ml, control 94 ± 1): 51 ± 7%
- Aggregation (%) (washed rabbit platelets; inducer thrombin 0.1 U/ml, control 95 ± 2): 92 ± 2%
- Thromboxane formations ([6]; caused by arachidonic acid, collagen and thrombin, in words): all suppressed
- Thromboxane B2 ([6]; inducer arachidonic acid 100 μM, control 445 ± 44): 19 ± 15 ng/10^8 platelets
- Thromboxane B2 ([6]; inducer collagen 10 ug/ml, control 478 ± 93): 70 ± 5 ng/10^8 platelets
- Thromboxane B2 ([6]; inducer thrombin 0.1 U/ml, control 131 ± 25): 44 ± 14 ng/10^8 platelets

SMILES: C=C[C@H]1C[N@@]2CC[C@H]1C[C@@H]2[C@@H](O)c1ccnc2ccc(OC)cc12 [quinidine, reference compound]
- Tp (time to peak) (rat ventricular cells): 10.8 ± 2.4 ms
- APD50 (action potential duration at 50% repolarization) (rat ventricular cells): 276.0 ± 18.6 ms
- AP amplitude (initial upstroke amplitude) (rat ventricular cells): 121.2 ± 2.3 mV
